We go through 31 compounds from patent publication US12600696B2 (XENIOPRO GMBH, priority 2017, dated 2026).

The experiment concerns HL-60 cells (human acute myeloid leukemia cells). Briefly: alamarBlue proliferation assay with HL-60 cells. In kind it is cell-based. Particulars: 120 h, 5 days, relative to DMSO baseline level of 1.0, read-out: AVEw, weighted arithmetic mean of normalized fluorescence intensity values (Activity Range), HL-60 proliferation. Here is the method:
The antiproliferative activities of compounds falling under formula I, formula II, formula III, formula IV and formula V were investigated on cells or cell lines originating from a disorder of the myeloid cell compartment, the neuroendocrine system, the cervix, and the mucosal epithelium, as well as from the skin epithelium. To this end, HL-60 cells, TT cells, HeLa cells, CAL-27 cells and human primary epidermal keratinocytes (HPEK) were seeded into 96-well plates suitable for fluorescence assays (CORNING #3598) at following initial cell numbers: 1000 cells per well for HL-60; 9000 cells per well for TT; 2000 cells per well for HeLa, 2000 cells per well for CAL-27, 2000 cells per well for HPEK. The cells were treated with compounds at indicated final concentrations (diluted from the 1000× stock-solutions in DMSO to a final DMSO concentration of 0.1% v/v) or with the empty carrier DMSO at 0.1% v/v as control for 5 days. At day 5 after starting the treatments the cells were subjected to the alamarBlue® Proliferation Assay (Bio-Rad Serotec GmbH, BUF012B) according to the protocol of the manufacturer. The readout was taken with a multi-well plate-reader in the fluorescence mode with applying a filter for excitation at 560 nm (band width 10 nm) and for emission at 590 nm (band width 10 nm). Resveratrol (RES) treatment was included as control for growth inhibition.
The assays were performed in duplicate or more replicates of independent single experiments each containing a six-fold replicate for every condition. For every individual plate, the measured fluorescence intensity values of the conditions with compound treatment were normalized against the corresponding equally weighted arithmetic mean of the fluorescence intensity values of the six DMSO treated control wells in order to obtain the relative values to a baseline level of 1.0. The statistical calculations were performed in analogy to the luciferase assay as described above. To this end, two independent outlier analyses were performed according to the methods by Peirce and Chauvenet (Ross, Journal of Engineering Technology 2003, 1-12). Outliers confirmed by at least one of the methods were excluded from the calculations but not more than one value out of six per compound within a single experiment. The weighted arithmetic mean AVEw for each compound was calculated from the normalized values over all independent replicates of the single experiments comprising the six replicates each. The corresponding standard deviation for the weighted arithmetic mean was calculated according to the method described by Bronstein et al. (Bronstein, Semendjajew, Musiol, Mühlig, Taschenbuch der Mathematik, 5th edition 2001 (German), publisher: Verlag Harri Deutsch, Frankfurt am Main and Thun) and was combined with the Gauß′ error propagation associated with the performed calculation for the normalization. The resulting standard deviation is herein referred to as “combined standard deviation”.
HL-60 cells were cultivated according to the protocol of the provider in RPMI 1640 medium (Fisherscientific, #11554526) containing 10% fetal bovine serum (Fisherscientific, #15517589).
A compound is considered as a growth inhibitor of HL-60 cells, if—at a reference concentration of 20 μM—the weighted arithmetic mean of the normalized fluorescence intensity values after addition of the corresponding combined standard deviation amounts to 0.9 or lower, in particular to 0.8 or lower, 0.7 or lower, 0.6 or lower, 0.4 or lower, and 0.2 or lower, relative to the overall basis level of 1.0. The overall basis level was calculated as the weighted arithmetic mean of all normalized values from the DMSO control measurements in analogy to the calculations performed for the test-compounds. The corresponding combined standard deviation for the DMSO values amounts to less than 1·10^−2.
A general note: The colour change of resazurin is a common sign of viable cells or microbes.

As for `CCC(C)(C)c1ccc(Oc2ccc(C(N)=O)cn2)cc1` [Compound 248, 6-(4-(tert-pentyl)phenoxy)nicotinamide], the activity at 20 µM was in the range of 80 to 90%. With `CCC(C)(C)c1ccc(Oc2ccc(C(=O)NC)cn2)cc1` [Compound 298, N-methyl-6-(4-(tert-pentyl)phenoxy)nicotinamide] the figure was 80 to 90%. On to `CN(C)C(=O)c1ccc(Oc2ccc(C3(C(F)(F)C(F)(F)F)CC3)cc2)cc1` [Compound 785, N,N-dimethyl-4-(4-(1-(perfluoroethyl)cyclopropyl)phenoxy)benzamide], for which the activity at 20 µM fell in the range of 70 to 80%. With `CCOC(=O)c1ccc(Oc2ccc(C34CC5CC(CC(C5)C3)C4)cc2)c(F)c1` [Compound 414, ethyl 4-(4-((3r,5r,7r)-adamantan-1-yl)phenoxy)-3-fluorobenzoate] the figure was 60 to 70%.

As for `CN(C)C(=O)c1cnc(Oc2ccc(C34CC5CC(CC(C5)C3)C4)cc2)c(F)c1` [Compound 700, 6-(4-((3r,5r,7r)-adamantan-1-yl)phenoxy)-5-fluoro-N,N-dimethylnicotinamide], the activity at 20 µM was 60 to 70%. Under `CCOC(=O)c1cnc(Oc2ccc(C(C)(C)CC)cc2)c(F)c1` [Compound 477, ethyl 5-fluoro-6-(4-(tert-pentyl)phenoxy)nicotinate] stands 80 to 90%.

For `CCOC(=O)c1cnc(Oc2ccc(C34CC5CC(CC(C5)C3)C4)cc2)c(F)c1` [Compound 492, ethyl 6-(4-((3r,5r,7r)-adamantan-1-yl)phenoxy)-5-fluoronicotinate], the activity at 20 µM is 60 to 70%.

Consider `CN(C)C(=O)c1ccc(Oc2ccc(C3(C(F)(F)F)CC3)cc2)c(F)c1` [Compound 786, 3-fluoro-N,N-dimethyl-4-(4-(1-(trifluoromethyl)cyclopropyl)phenoxy)benzamide], for which the activity at 20 µM was 70 to 80%. Take `CCC(C)(C)c1ccc(Oc2ccc(C(=O)N(C)C)cc2F)cc1` [Compound 581, 3-fluoro-N,N-dimethyl-4-(4-(tert-pentyl)phenoxy)benzamide]: the activity at 20 µM lay within 70 to 80%. With `CNC(=O)c1ccc(Oc2ccc(C3(C(F)(F)F)CC3)cc2)nc1` [Compound 811] the figure was 80 to 90%; with `CCCCc1ccc(Oc2ccc(C(=O)N(C)C)cc2)cc1` [Compound 218, 4-(4-butylphenoxy)-N,N-dimethylbenzamide], 40 to 60%; with `O=C(O)c1ccc(Oc2ccc(C3CC4CCC3CC4)cc2)nc1` (stereo not shown) [Compound 087, 6-(4-((1s,4s)-bicyclo[2.2.2]octan-2-yl)phenoxy)nicotinic acid], 80 to 90%.

On to `CCCCCc1ccc(Oc2ccc(C(N)=O)cn2)cc1` [Compound 245, 6-(4-pentylphenoxy)nicotinamide], for which the activity at 20 µM lay within 80 to 90%. With `COC(=O)c1ccc(Oc2ccc(C3(C(F)(F)C(F)(F)F)CC3)cc2)nc1` [Compound 740, methyl 6-(4-(1-(perfluoroethyl)cyclopropyl)phenoxy)nicotinate] the figure was 80 to 90%; with `CCOC(=O)c1ccc(Oc2ccc(C3(C(F)(F)F)CC3)cc2Cl)nc1` [Compound 756, ethyl 6-(2-chloro-4-(1-(trifluoromethyl)cyclopropyl)phenoxy)nicotinate], 70 to 80%; with `CCOC(=O)c1ccc(Oc2ccc(C3(C(F)(F)F)CC3)cc2)c(F)c1` [Compound 723, ethyl 3-fluoro-4-(4-(1-(trifluoromethyl)cyclopropyl)phenoxy)benzoate], 80 to 90%.

With `COC(=O)c1ccc(Oc2ccc(C3(C(F)(F)F)CC3)cc2)nc1` [Compound 739, methyl 6-(4-(1-(trifluoromethyl)cyclopropyl)phenoxy)nicotinate], the activity at 20 µM was in the range of 80 to 90%.

Take `CCOC(=O)c1ccc(Oc2ccc(C(C)C)cc2)cc1` [Compound 054, ethyl 4-(4-isopropylphenoxy)benzoate]: the activity at 20 µM lay within 80 to 90%. Under `CCC(C)(C)c1ccc(Oc2ccc(C(=O)N(C)C)cc2)cc1` [Compound 223, N,N-dimethyl-4-(4-(tert-pentyl)phenoxy)benzamide] stands 70 to 80%; under `CCc1ccc(Oc2ccc(C(=O)O)cc2)cc1` [Compound 002, 4-(4-ethylphenoxy)benzoic acid], 80 to 90%.

Regarding `NC(=O)c1ccc(Oc2ccc(C3(C(F)(F)F)CC3)cc2)nc1` [Compound 793, 6-(4-(1-(trifluoromethyl)cyclopropyl)phenoxy)nicotinamide], the activity at 20 µM fell in the range of 80 to 90%. Under `CNC(=O)c1cnc(Oc2ccc(C34CC5CC(CC(C5)C3)C4)cc2)c(F)c1` [Compound 674, 6-(4-((3r,5r,7r)-adamantan-1-yl)phenoxy)-5-fluoro-N-methylnicotinamide] stands 70 to 80%. Under `CN(C)C(=O)c1ccc(Oc2ccc(C3(C(F)(F)C(F)(F)F)CC3)cc2)nc1` [Compound 821, N,N-dimethyl-6-(4-(1-(perfluoroethyl)cyclopropyl)phenoxy)nicotinamide] stands 60 to 70%; under `CCCCCc1ccc(Oc2ccc(C(=O)N(C)C)cn2)cc1` [Compound 320, N,N-dimethyl-6-(4-pentylphenoxy)nicotinamide], 40 to 60%; under `CN(C)C(=O)c1ccc(Oc2ccc(C3CCCCC3)cc2)c(F)c1` [Compound 592, 4-(4-cyclohexylphenoxy)-3-fluoro-N,N-dimethylbenzamide], 80 to 90%. With `CCOC(=O)c1cnc(Oc2ccc(C3CCCCC3)cc2)c(F)c1` [Compound 488, ethyl 6-(4-cyclohexylphenoxy)-5-fluoronicotinate] the figure was 70 to 80%; with `CCc1ccc(Oc2ccc(C(=O)NO)cc2)cc1` [Compound 165, 4-(4-ethylphenoxy)-N-hydroxybenzamide], 80 to 90%; with `CCC(C)(C)c1ccc(Oc2ncc(C(=O)N(C)C)cc2F)cc1` [Compound 685, 5-fluoro-N,N-dimethyl-6-(4-(tert-pentyl)phenoxy)nicotinamide], 70 to 80%. With `O=C(O)c1ccc(Oc2ccc(C3(C(F)(F)F)CC3)cc2Cl)nc1` [Compound 738, 6-(2-chloro-4-(1-(trifluoromethyl)cyclopropyl)phenoxy)nicotinic acid], the activity at 20 µM was 80 to 90%. Under `O=C(O)c1cnc(Oc2ccc(C(F)(F)F)cc2)c(F)c1` [Compound 427, 5-fluoro-6-(4-(trifluoromethyl)phenoxy)nicotinic acid] stands 80 to 90%; under `CN(C)C(=O)c1ccc(Oc2ccc(C3(C(F)(F)F)CC3)cc2Cl)cc1` [Compound 792, 4-(2-chloro-4-(1-(trifluoromethyl)cyclopropyl)phenoxy)-N,N-dimethylbenzamide], 80 to 90%.
